Laboratory results taken from ChEMBL document CHEMBL2034942, “Trigoxyphins H and I: two new daphnane diterpenoids from Trigonostemon xyphophylloides” (Bioorg Med Chem Lett, 2012).

Tests used:
[1] = Cytotoxicity against human SPC-A1 cells after 48 hrs by MTT assay; type: functional, cell-based; details: SPCA1, 48 h
Bel-7402 = experiment: Cytotoxicity against human Bel7402 cells after 48 hrs by MTT assay; type: functional, cell-based; details: Bel-7402, 48 h

Compound	IC50 [1]	IC50 (Bel-7402)
C=C(C)[C@@]12OC3(c4ccccc4)O[C@@H]1[C@@H]1[C@@H]4O[C@]4(C)[C@@H](O)[C@@H]4C(=O)C(C)=C[C@@H]4[C@@]1(O3)[C@H](C)[C@@H]2OC(=O)c1ccccc1 (relative stereo)	37.3 µM	16.1 µM
C=C(C)[C@@]12OC3(c4ccccc4)O[C@@H]1[C@@H]1[C@H](OC(C)=O)[C@@](C)(OC(=O)c4ccccc4)[C@@H](OC(C)=O)[C@@]4(O)[C@@H](C[C@H](C)[C@@H]4OC(C)=O)[C@@]1(O3)[C@H](C)[C@@H]2OC(C)=O [TRIGOXYPHIN I]	11.1 µM	8.73 µM
